According to PubChem BioAssay AID1963979 (Molecular Pharmacology Branch, DTP, NCI, 2024):

Tested on: 361931-004-R-J1-PDC multicell spheroid viability
Assay: Anticancer human tumor 361931-004-R-J1-PDC patient-derived colon adenocarcinoma cell line growth inhibition [PI3K]
Details: for IC50: curve of first compound; for viability, T/C: stronger effect = lower value
Method in brief: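 Three cell types, namely tumor cells, endothelial cells and mesenchymal stem cells, formed each spheroid. Combinations with four PI3K inhibitors were screened at clinically achievable concentrations decreasing by half-log, and spheroid viability was recorded.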

[1] = second compound 0.00316 µM, first compound 0.0316 µM
[2] = second compound 0.00316 µM, first compound 0.1 µM
[3] = second compound 0.00316 µM, first compound 0.316 µM
[4] = second compound 0.00316 µM, first compound 1 µM
[5] = second compound 0.00316 µM, first compound 3.16 µM
[6] = second compound 0.00316 µM, first compound 10 µM
[7] = second compound 0.01 µM, first compound 0.0316 µM
[8] = second compound 0.01 µM, first compound 0.1 µM
[9] = second compound 0.01 µM, first compound 0.316 µM
[10] = second compound 0.01 µM, first compound 1 µM
[11] = second compound 0.01 µM, first compound 3.16 µM
[12] = second compound 0.01 µM, first compound 10 µM
[13] = second compound 0.0316 µM, first compound 0.0316 µM
[14] = second compound 0.0316 µM, first compound 0.1 µM
[15] = second compound 0.0316 µM, first compound 0.316 µM
[16] = second compound 0.0316 µM, first compound 1 µM
[17] = second compound 0.0316 µM, first compound 3.16 µM
[18] = second compound 0.0316 µM, first compound 10 µM
[19] = second compound 0.1 µM, first compound 0.0316 µM
[20] = second compound 0.1 µM, first compound 0.1 µM
[21] = second compound 0.1 µM, first compound 0.316 µM
[22] = second compound 0.1 µM, first compound 1 µM
[23] = second compound 0.1 µM, first compound 3.16 µM
[24] = second compound 0.1 µM, first compound 10 µM
[25] = second compound 0.316 µM, first compound 0.0316 µM
[26] = second compound 0.316 µM, first compound 0.1 µM
[27] = second compound 0.316 µM, first compound 0.316 µM
[28] = second compound 0.316 µM, first compound 1 µM
[29] = second compound 0.316 µM, first compound 3.16 µM
[30] = second compound 0.316 µM, first compound 10 µM
[31] = second compound 1 µM, first compound 0.0316 µM
[32] = second compound 1 µM, first compound 0.1 µM
[33] = second compound 1 µM, first compound 0.316 µM
[34] = second compound 1 µM, first compound 1 µM
[35] = second compound 1 µM, first compound 3.16 µM
[36] = second compound 1 µM, first compound 10 µM
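Also: spheroids exposed to agents for seven days before readout.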

Structure (SMILES): CC1(C)CCC(CN2CCN(c3ccc(C(=O)NS(=O)(=O)c4ccc(NCC5CCOCC5)c([N+](=O)[O-])c4)c(Oc4cnc5[nH]ccc5c4)c3)CC2)=C(c2ccc(Cl)cc2)C1 + COc1c(OCCCN2CCOCC2)ccc2c3n(c(=NC(=O)c4cnc(N)nc4)nc12)CCN3
- IC50 (second compound 0.00316 µM): 5.64 µM
- IC50 (second compound 0.01 µM): 5.57 µM
- IC50 (second compound 0.0316 µM): 4.87 µM
- IC50 (second compound 0.1 µM): 3.49 µM
- IC50 (second compound 0.316 µM): 0.555 µM
- IC50 (second compound 1 µM): < 0.0316 µM
- viability, T/C [1]: 92.3%
- viability, T/C [2]: 98.1%
- viability, T/C [3]: 108%
- viability, T/C [4]: 104%
- viability, T/C [5]: 95.4%
- viability, T/C [6]: 4.89%
- viability, T/C [7]: 106%
- viability, T/C [8]: 98.7%
- viability, T/C [9]: 104%
- viability, T/C [10]: 101%
- viability, T/C [11]: 94.6%
- viability, T/C [12]: 3.83%
- viability, T/C [13]: 96%
- viability, T/C [14]: 94.9%
- viability, T/C [15]: 96.2%
- viability, T/C [16]: 90.4%
- viability, T/C [17]: 78.6%
- viability, T/C [18]: 3.08%
- viability, T/C [19]: 82.5%
- viability, T/C [20]: 76.6%
- viability, T/C [21]: 76.8%
- viability, T/C [22]: 81%
- viability, T/C [23]: 54.5%
- viability, T/C [24]: 1.89%
- viability, T/C [25]: 53%
- viability, T/C [26]: 51.6%
- viability, T/C [27]: 51.4%
- viability, T/C [28]: 48.6%
- viability, T/C [29]: 36.4%
- viability, T/C [30]: 2.15%
- viability, T/C [31]: 25.9%
- viability, T/C [32]: 25.6%
- viability, T/C [33]: 21.4%
- viability, T/C [34]: 25.6%
- viability, T/C [35]: 19.8%
- viability, T/C [36]: 2.71%

Structure (SMILES): CCCS(=O)(=O)Nc1ccc(F)c(C(=O)c2c[nH]c3ncc(-c4ccc(Cl)cc4)cc23)c1F + COc1c(OCCCN2CCOCC2)ccc2c3n(c(=NC(=O)c4cnc(N)nc4)nc12)CCN3
- IC50 (second compound 0.00316 µM): 4.62 µM
- IC50 (second compound 0.01 µM): 4.73 µM
- IC50 (second compound 0.0316 µM): 4.48 µM
- IC50 (second compound 0.1 µM): 1.57 µM
- IC50 (second compound 0.316 µM): 0.0487 µM
- IC50 (second compound 1 µM): < 0.0316 µM
- viability, T/C [1]: 102%
- viability, T/C [2]: 104%
- viability, T/C [3]: 93.7%
- viability, T/C [4]: 89.8%
- viability, T/C [5]: 72.3%
- viability, T/C [6]: 7.97%
- viability, T/C [7]: 107%
- viability, T/C [8]: 93.1%
- viability, T/C [9]: 94%
- viability, T/C [10]: 88.1%
- viability, T/C [11]: 75.6%
- viability, T/C [12]: 6.49%
- viability, T/C [13]: 93%
- viability, T/C [14]: 87.3%
- viability, T/C [15]: 77.5%
- viability, T/C [16]: 83.3%
- viability, T/C [17]: 69.4%
- viability, T/C [18]: 6.55%
- viability, T/C [19]: 89.1%
- viability, T/C [20]: 72.5%
- viability, T/C [21]: 67.4%
- viability, T/C [22]: 53%
- viability, T/C [23]: 47.6%
- viability, T/C [24]: 5.33%
- viability, T/C [25]: 54.1%
- viability, T/C [26]: 45.5%
- viability, T/C [27]: 28.9%
- viability, T/C [28]: 27.4%
- viability, T/C [29]: 17.8%
- viability, T/C [30]: 3.29%
- viability, T/C [31]: 20.6%
- viability, T/C [32]: 21.3%
- viability, T/C [33]: 14%
- viability, T/C [34]: 9.73%
- viability, T/C [35]: 7.59%
- viability, T/C [36]: 2.7%

Structure (SMILES): C[C@@H](NC(=O)c1ncnc(N)c1Cl)c1ncc(C(=O)Nc2cc(C(F)(F)F)c(Cl)cn2)s1 + COc1c(OCCCN2CCOCC2)ccc2c3n(c(=NC(=O)c4cnc(N)nc4)nc12)CCN3
- IC50 (second compound 0.00316 µM): > 10 µM
- IC50 (second compound 0.01 µM): > 10 µM
- IC50 (second compound 0.0316 µM): > 10 µM
- IC50 (second compound 0.1 µM): 5.01 µM
- IC50 (second compound 0.316 µM): 0.213 µM
- IC50 (second compound 1 µM): < 0.0316 µM
- viability, T/C [1]: 108%
- viability, T/C [2]: 101%
- viability, T/C [3]: 108%
- viability, T/C [4]: 102%
- viability, T/C [5]: 109%
- viability, T/C [6]: 89.2%
- viability, T/C [7]: 110%
- viability, T/C [8]: 99.9%
- viability, T/C [9]: 105%
- viability, T/C [10]: 98%
- viability, T/C [11]: 98.4%
- viability, T/C [12]: 89%
- viability, T/C [13]: 98.6%
- viability, T/C [14]: 100%
- viability, T/C [15]: 96.6%
- viability, T/C [16]: 87.7%
- viability, T/C [17]: 89.2%
- viability, T/C [18]: 71.2%
- viability, T/C [19]: 85.9%
- viability, T/C [20]: 86.1%
- viability, T/C [21]: 91.1%
- viability, T/C [22]: 71.3%
- viability, T/C [23]: 64.5%
- viability, T/C [24]: 31%
- viability, T/C [25]: 58%
- viability, T/C [26]: 54.3%
- viability, T/C [27]: 46.5%
- viability, T/C [28]: 39.9%
- viability, T/C [29]: 25.7%
- viability, T/C [30]: 7.73%
- viability, T/C [31]: 26.1%
- viability, T/C [32]: 25.8%
- viability, T/C [33]: 17.7%
- viability, T/C [34]: 11.8%
- viability, T/C [35]: 8.36%
- viability, T/C [36]: 1.75%
